Experimental data as given in patent publication US8475851B2, “Preparations with wood extracts of locust trees” (Symrise AG, priority 2011, dated 2013).

Tested on: 3T3-L1 cells
Assay: Adipogenesis assay
Type: cell-based, mouse
Conditions: for Adipogenesis inhibition, result in words: concentration tested
Protocol: 3T3-L1 cells (mouse embryonic fibroblast-like adipocyte cell line) are seeded in a 48-well plate with collagen I coating at a concentration of 3×10^4 cells/well. After culture for 72 h at 37° C. and 5% CO2 in DMEM (Dulbecco's Modified Eagle's Medium), enriched with 10% calf serum, various concentrations of the test samples are added to DMEM, enriched with 10% fetal calf serum supplemented with 1 μg/ml insulin, 0.25 μM dexamethasone and 0.5 mM IBMX (3-isobutyl-1-methylxanthine), and incubated for a further 48 h. The medium is changed, applying DMEM, enriched with 10% fetal calf serum supplemented with 1 μg/ml insulin. After further cultivation for 48 h, the medium is changed again, applying DMEM enriched with 10% fetal calf serum.
After incubation for a further 72 h, the intracellularly stored lipids are quantified as a measure for the differentiation of the cells, by measuring the fluorescence after staining the lipids with the fluorescent dye Nile Red.
The inhibition of adipogenesis in the presence of the test samples is calculated from the following equation:
[formula] with RFU test substance=relative fluorescence units of the wells with test substance and with cells RFU control=relative fluorescence units of the wells without test substance, but with cells RFU control without cells=relative fluorescence units of the wells without test substance and without cells.
IC50 is calculated from the adipogenesis inhibition [%] in a series of dilutions of samples tested. This is the concentration at which adipogenesis is inhibited 50%.

SMILES	Adipogenesis inhibition, result in words	Adipogenesis inhibition (test concentration 0.0005 % (corresponds to content 1.5 wt. % in BIO781/2))	Adipogenesis inhibition (test concentration 0.0003 % (corresponds to content 1.0 wt. % in BIO781/2))
O=C1c2ccc(O)cc2OC(c2ccc(O)c(O)c2)C1O (stereo not shown) [Fustin, 3,3′,4′,7-tetrahydroxyflavanone]	do not show any activity	No inhibition	–
O=c1c(O)c(-c2ccc(O)c(O)c2)oc2cc(O)ccc12 [Fisetin, 3,3′,4′,7-tetrahydroxyflavone]	do not show any activity	–	No inhibition
